Row | melting point | Structure (SMILES)
1 | > 250 °C | Cc1cccc(C)c1CNC(=O)n1[nH]c2c(C(=O)O)cccc2c1=O [Example 60, 2-(2,6-Dimethyl-benzylcarbamoyl)-3-oxo-2,3-dihydro-1H-indazole-7-carboxylic acid]
2 | > 250 °C | CCc1cccc(CC)c1CNC(=O)n1[nH]c2cccc(C(=O)O)c2c1=O [Example 69, 2-(2,6-Diethyl-benzylcarbamoyl)-3-oxo-2,3-dihydro-1H-indazole-4-carboxylic acid]
3 | > 250 °C | CCCn1c2c(C(=O)O)cccc2c(=O)n1C(=O)NCc1c(C)cccc1CC [Example 81, 2-(2-Ethyl-6-methyl-benzylcarbamoyl)-3-oxo-1-propyl-2,3-dihydro-1H-indazole-7-carboxylic acid]
4 | 166 to 168 °C | Cc1ccccc1CNC(=O)n1[nH]c2ccccc2c1=O [Example 16, 3-Oxo-1,3-dihydro-indazole-2-carboxylic acid 2-methyl-benzylamide]
5 | > 250 °C | CCc1cccc(C)c1CNC(=O)n1c(=O)c2cccc(C(=O)O)c2n1CC [Example 80, 1-Ethyl-2-(2-ethyl-6-methyl-benzylcarbamoyl)-3-oxo-2,3-dihydro-1H-indazole-7-carboxylic acid]
6 | > 250 °C | CCc1cccc(C)c1CNC(=O)n1c(=O)c2cccc(C(=O)O)c2n1C [Example 79, 2-(2-Ethyl-6-methyl-benzylcarbamoyl)-1-methyl-3-oxo-2,3-dihydro-1H-indazole-7-carboxylic acid]
7 | 67 to 69 °C | C=CCOC(=O)c1cccc2[nH]n(C(=O)NCCCCCC)c(=O)c12 [Example 100, 2-Hexylcarbamoyl-3-oxo-2,3-dihydro-1H-indazole-4-carboxylic acid allyl ester]
8 | 186 to 188 °C | COc1cccc(CNC(=O)n2[nH]c3ccccc3c2=O)c1 [Example 24, 3-Oxo-1,3-dihydro-indazole-2-carboxylic acid 3-methoxy-benzylamide]
9 | > 250 °C | O=C(O)c1cccc2[nH]n(C(=O)NCCCCc3ccccc3)c(=O)c12 [Example 75, 3-Oxo-2-(4-phenyl-butylcarbamoyl)-2,3-dihydro-1H-indazole-4-carboxylic acid]
10 | > 250 °C | Cc1cccc(C(C)(C)C)c1CNC(=O)n1c(=O)c2cccc(C(=O)O)c2n1C [Example 97, 2-(2-tert-Butyl-6-methyl-benzylcarbamoyl)-1-methyl-3-oxo-2,3-dihydro-1H-indazole-7-carboxylic acid]
11 | 119 to 120 °C | CCCCCNC(=O)n1[nH]c2ccccc2c1=O [Example 2, 3-Oxo-1,3-dihydro-indazole-2-carboxylic acid pentylamide]
12 | 172 to 174 °C | CCc1cccc(C)c1CNC(=O)n1c(=O)c2cccc(C(=O)O)c2n1CC(=O)O [Example 82, 1-Carboxymethyl-2-(2-ethyl-6-methyl-benzylcarbamoyl)-3-oxo-2,3-dihydro-1H-indazole-7-carboxylic acid]
13 | > 250 °C | CCc1cccc(C)c1CNC(=O)n1[nH]c2cccc(C(=O)O)c2c1=O [Example 61, 2-(2-Ethyl-6-methyl-benzylcarbamoyl)-3-oxo-2,3-dihydro-1H-indazole-4-carboxylic acid]
14 | > 250 °C | Cc1ccccc1CNC(=O)n1[nH]c2cccc(C(=O)O)c2c1=O [Example 52, 2-(2-Methyl-benzylcarbamoyl)-3-oxo-2,3-dihydro-1H-indazole-4-carboxylic acid]
15 | > 250 °C | CCc1cccc(C)c1CNC(=O)n1[nH]c2cc(C(=O)O)ccc2c1=O [Example 63, 2-(2-Ethyl-6-methyl-benzylcarbamoyl)-3-oxo-2,3-dihydro-1H-indazole-6-carboxylic acid]
16 | > 250 °C | Cc1cccc(C)c1CNC(=O)n1[nH]c2cccc(C(=O)O)c2c1=O [Example 59, 2-(2,6-Dimethyl-benzylcarbamoyl)-3-oxo-2,3-dihydro-1H-indazole-4-carboxylic acid]
17 | 173 to 175 °C | CCCCc1ccc(CNC(=O)n2[nH]c3cccc(C(=O)O)c3c2=O)c(C)c1 [Example 68, 2-(4-Butyl-2-methyl-benzylcarbamoyl)-3-oxo-2,3-dihydro-1H-indazole-4-carboxylic acid]
18 | > 250 °C | CC(C)c1cccc(C(C)C)c1CNC(=O)n1[nH]c2c(C(=O)O)cccc2c1=O [Example 72, 2-(2,6-Diisopropyl-benzylcarbamoyl)-3-oxo-2,3-dihydro-1H-indazole-7-carboxylic acid]
19 | 63 to 65 °C | CCCCCCNC(=O)n1[nH]c2cccc(C(=O)OC)c2c1=O [Example 99, 2-Hexylcarbamoyl-3-oxo-2,3-dihydro-1H-indazole4-carboxylic acid methyl ester]
20 | 134 to 136 °C | CC(C)CCCCNC(=O)n1[nH]c2ccccc2c1=O [Example 5, 3-Oxo-1,3-dihydro-indazole-2-carboxylic acid (5-methyl-hexyl)-amide]
21 | > 250 °C | Cc1ccccc1CNC(=O)n1[nH]c2c(C(=O)O)cccc2c1=O [Example 55, 2-(2-Methyl-benzylcarbamoyl)-3-oxo-2,3-dihydro-1H-indazole-7-carboxylic acid]
22 | 230 °C (dec.) | Cc1ccc(F)cc1CNC(=O)n1[nH]c2cccc(C(=O)O)c2c1=O [Example 57, 2-(5-Fluoro-2-methyl-benzylcarbamoyl)-3-oxo-2,3-dihydro-1H-indazole-4-carboxylic acid]
23 | > 250 °C | CCc1cccc(C)c1CNC(=O)n1[nH]c2c(C(=O)O)cccc2c1=O [Example 64, 2-(2-Ethyl-6-methyl-benzylcarbamoyl)-3-oxo-2,3-dihydro-1H-indazole-7-carboxylic acid]
24 | 235 °C (dec.) | Cc1ccc2c(=O)n(C(=O)NCc3ccccc3C)[nH]c2c1 [Example 45, 6-Methyl-3-oxo-1,3-dihydro-indazole-2-carboxylic acid 2-methyl-benzylamide]
25 | 196 to 198 °C | O=C(O)c1cccc2[nH]n(C(=O)NCCCCC3CCCCC3)c(=O)c12 [Example 76, 2-(4-Cyclohexyl-butylcarbamoyl)-3-oxo-2,3-dihydro-1H-indazole-4-carboxylic acid]
26 | 153 to 155 °C | CCCNC(=O)n1[nH]c2ccccc2c1=O [Example 1, 3-Oxo-1,3-dihydro-indazole-2-carboxylic acid propylamide]
27 | > 250 °C | CCc1cccc(CC)c1CNC(=O)n1c(=O)c2cccc(C(=O)O)c2n1C [Example 98, 2-(2,6-Diethyl-benzylcarbamoyl)-1-methyl-3-oxo-2,3-dihydro-1H-indazole-7-carboxylic acid]
28 | > 250 °C | Cc1ccccc1CNC(=O)n1[nH]c2ccc(C(=O)O)cc2c1=O [Example 53, 2-(2-Methyl-benzylcarbamoyl)-3-oxo-2,3-dihydro-1H-indazole-5-carboxylic acid]
29 | 220 to 222 °C | CCc1cccc(C)c1CNC(=O)n1c(=O)c2cccc(C(=O)O)c2n1CC(=O)OC [Example 83, 2-(2-Ethyl-6-methyl-benzylcarbamoyl)-1-methoxycarbonylmethyl-3-oxo-2,3-dihydro-1H-indazole-7-carboxylic acid]
30 | > 250 °C | CCc1cccc(C)c1CNC(=O)n1[nH]c2ccc(C(=O)O)cc2c1=O [Example 62, 2-(2-Ethyl-6-methyl-benzylcarbamoyl)-3-oxo-2,3-dihydro-1H-indazole-5-carboxylic acid]

Source: US20060211755A1, “3-oxo-1, 3-dihydro-indazole-2-carboxylic acid amide derivatives as phospholipase inhibitors” (Eli Lilly and Company Patent Division, priority 2003, published 2006)
